Experimental data from PubChem BioAssay (NCI).
“And” between values parts separate entries of the source, which are not always exact repeats. Equal entries are not always repeated.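 Protocol summary: plate cells (96-well), add compound at 5 concentrations, incubate 48 h, interpolate endpoints linearly. GI50 = concentration required for 50% inhibition of growth. Definition used: TGI = concentration required for complete inhibition of growth.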

Key:
Assay in all cases: inhibition of tumour cell growth, NCI panel, 48 h
SNB-75 CNS = tested on: SNB-75 CNS
SW-620 colon = tested on: SW-620 colon
HS 578T breast = tested on: HS 578T breast
NCI-H522 lung = tested on: NCI-H522 lung
MOLT-4 leukemia = tested on: MOLT-4 leukemia
OVCAR-5 ovarian = tested on: OVCAR-5 ovarian
SF-295 CNS = tested on: SF-295 CNS
NCI-H460 lung = tested on: NCI-H460 lung
ACHN renal = tested on: ACHN renal
MDA-MB-231 breast = tested on: MDA-MB-231 breast

Row | SMILES | GI50 (SNB-75 CNS) | TGI (SNB-75 CNS) | GI50 (SW-620 colon) | TGI (SW-620 colon) | GI50 (HS 578T breast) [µM] | TGI (HS 578T breast) [µM] | GI50 (NCI-H522 lung) | TGI (NCI-H522 lung) | GI50 (MOLT-4 leukemia) | TGI (MOLT-4 leukemia) | GI50 (OVCAR-5 ovarian) | TGI (OVCAR-5 ovarian) | GI50 (SF-295 CNS) | TGI (SF-295 CNS) | GI50 (NCI-H460 lung) | TGI (NCI-H460 lung) | GI50 (ACHN renal) | TGI (ACHN renal) | GI50 (MDA-MB-231 breast) | TGI (MDA-MB-231 breast)
1 | COc1cc(C2NC(=O)C(C#N)=C(Nc3cccc(C)c3)S2)ccc1O (stereo not given) | > 100 µM | > 100 µM | > 100 µM | > 100 µM | > 100 | > 100 | > 100 µM | > 100 µM | > 100 µM | > 100 µM | > 100 µM | > 100 µM | > 100 µM | > 100 µM | > 100 µM | > 100 µM | > 100 µM | > 100 µM | > 100 µM | > 100 µM
2 | CC(C)(C)[Si](C)(C)OC1[C@@H](COC(=O)NC(=O)CCl)O[C@@H](n2cnc3c(N)ncnc32)[C@H]1O[Si](C)(C)C(C)(C)C (stereo not given in full) | 3.64 µM | 10.8 µM | 1.73 µM | 6.54 µM | 7.62 | 19.3 | 0.122 µM | 0.312 µM | 1.01 µM | 2.22 µM | 3.11 µM | 9.55 µM | 7.52 µM | 14.3 µM | 7.22 µM | 14.9 µM | 1.38 µM | 3.45 µM | 1.12 µM | 2.76 µM
3 | COc1ccc(-c2[nH]ncc2Nc2cc(OC)c(OC)c(OC)c2)cc1 | 1.52 µM | > 100 µM | 0.558 µM | > 100 µM | 1.3 | 4.65 | 1.98 µM | 49.3 µM | 2.12 µM | 63.7 µM | 5.26 µM | > 100 µM | 1.31 µM | > 21.1 µM | 2.68 µM | > 63.6 µM | 10.3 µM | > 100 µM | 3.34 µM | > 100 µM
4 | COC(=O)c1cc2cc(/C=C3/SC(=S)N(N(C(C)=O)C(C)=O)C3=O)oc2n1Cc1ccccc1 | 37.1 µM | > 100 µM | 41 µM | > 100 µM | 24.2 | 76.6 | 19.1 µM | 48.6 µM | 59.9 µM | > 100 µM | 19 µM | 38.1 µM | 13.2 µM | 52.4 µM | 19.3 µM | > 100 µM | 18.3 µM | 35.9 µM | 20.6 µM | 50.4 µM
5 | COc1ccc2nc3ccccc3c(NCCNCC(C)O)c2c1 (stereo not given) | 0.781 µM | 2.59 µM | 0.3 µM | 12.5 µM | 1.1 | 12.2 | 0.427 µM | 2.09 µM | 0.368 µM |  | 0.377 µM | 5.01 µM | 0.36 µM | 4.02 µM | 0.276 µM | 10.4 µM | 0.375 µM | 14.4 µM | 0.31 µM | 1.85 µM
6 | O=C1/C(=C/c2ccc([N+](=O)[O-])o2)Oc2ccc(Cl)cc21 | 1.6 µM | 5.44 µM | 0.541 µM | 1.99 µM | 2.95 | > 27.6 | 1.31 µM | 2.79 µM | 2.05 µM | 6.73 µM | 2.63 µM | 7.5 µM | 11.5 µM | 49.1 µM | 3 µM | 15.4 µM | 1.54 µM | 2.98 µM | 1.77 µM | 4.12 µM
7 | O=C(CI)Nc1ccc(Br)cc1 | 5.42 µM | 24.7 µM |  |  | 5.05 | > 100 | 1.53 µM | 3.47 µM | 3.43 µM | > 100 µM | 2.14 µM | 4.81 µM | 11.2 µM | 30.7 µM | 12.4 µM | 45.8 µM | 2 µM | 4.06 µM | 2.6 µM | 5.51 µM
8 | CC(=O)c1c(C)c2cnc(Nc3ccc(N4CCNCC4)cn3)nc2n(C2CCCC2)c1=O | 10.7 µM | 23.4 µM | 0.332 µM | 19.1 µM | 14.9 | 42.2 | 13 µM | 27.4 µM | 0.548 µM | 24.9 µM | 8.59 µM | 22.3 µM | 12.9 µM | 28.9 µM | 1.79 µM | 18.4 µM | 1.03 µM | 14.7 µM | 9.84 µM | 24.9 µM
9 | CC1=C[C@@H]2c3c(c(O)c(O)c4oc5cc(O)cc(O)c5c(=O)c34)[C@@H](c3cc(O)c(O)c4oc5cc(O)cc(O)c5c(=O)c34)[C@@H]2C(C)(C)C1 | 6.34 µM | 20.5 µM | 3.48 µM | 14.2 µM | 3.42 | 21 | 2.9 µM | 12.1 µM | 3.38 µM | 19.5 µM | 7.83 µM | 18.2 µM | 2.87 µM | 11.3 µM | 1.1 µM | 8.31 µM | 4.25 µM | 15.7 µM | 4.19 µM | 20.5 µM
10 | CCOC(=O)/C=C1/SC(=Nc2ccc(C#N)cc2)N(Cc2ccco2)C1=O | 10.3 µM | 55.4 µM | 2.06 µM | 4.97 µM | 6.96 | > 100 | 1.83 µM | 4.12 µM | 2.81 µM | 8.31 µM | 3.36 µM | 16.1 µM | 9.99 µM | 26.6 µM | 5.66 µM | 19.7 µM | 1.78 µM | 3.33 µM | 4.29 µM | 23.5 µM
11 | Cc1cc(N(CCNc2ccnc3cc(Cl)ccc23)Cc2ccc3c(c2)OCO3)nc(N2CCCC2)n1 | 1.34 µM | 3 µM | 1.19 µM | 2.94 µM | 1.72 | 5.02 | 1.74 µM | 3.79 µM | 1.86 µM | 7.03 µM | 1.87 µM | 4.95 µM | 1.34 µM | 2.88 µM |  |  | 1.91 µM | 4.09 µM | 1.28 µM | 3.27 µM
12 | CNc1cc(-c2cccc(OC(F)(F)F)c2)nc2ccc(N3CCCC3)cc12 | 1.7 µM and 1.48 µM | 3.12 µM and 2.93 µM | 1.56 µM and 1.84 µM and 1.75 µM | 3.08 µM and 3.79 µM and 3.6 µM | 1.87 | 3.95 | 1.68 µM and 1.65 µM and 1.76 µM | 3.33 µM and 3.25 µM and 3.43 µM | 2.06 µM and 1.81 µM and 1.56 µM | 4.26 µM and 4.18 µM and 3.6 µM | 1.68 µM and 2.04 µM and 1.87 µM | 3.18 µM and 3.73 µM and 3.34 µM | 1.61 µM and 1.75 µM and 1.68 µM | 2.98 µM and 3.2 µM and 3.09 µM | 1.6 µM and 1.75 µM | 3.07 µM and 3.44 µM | 1.61 µM and 1.63 µM and 1.74 µM | 2.96 µM and 2.98 µM and 3.12 µM | 1.72 µM and 1.7 µM and 1.46 µM | 3.23 µM and 3.14 µM and 2.95 µM
